Measured values reported in PMC13199644, “Optimized Quantitative Bacterial Two-Hybrid (qB2H) for Protein–Protein Interaction Assessment” (Computational and Structural Biotechnology Journal, 2026).
No end group written: not given here.

Experiments:
[1] = test system: ASF1BN; test: qB2H v4 binder selection, short-term batch, kanamycin, NGS enrichment/frequency; type: cell-based, bacterial; details: 4 to 5 h, SB39 v4, TF/T0 frequency ratio
Procedure: (§1) Design and selection of binders
(§2) An AI pipeline integrating RFdiffusion, ProteinMPNN, and AlphaFold2 (detailed in Supplementary Methods) was implemented to design N-terminal extensions of ip4_mutG, a weak ASF1 binder (Kd ~10 μM). Briefly, N-terminal extensions of 11 to 16 amino acids were fused to linkers (GSEAK, GSEK, or GSK) and appended to the ip4_mutG coding sequence. Rational designs and controls (flexible N-terminal extensions) were incorporated into the library, ordered as oligonucleotide pools (oPools, IDT), and cloned into the v4 series plasmid for transformation into SB39 cells. Library selection was performed in 2 experimental setups: (a) short batch selection and (b) prolonged continuous selection in a turbidostat (Chi.Bio [61]).
(§3) In the batch selection, induced cultures diluted to OD600 = 0.05 were exposed to kanamycin concentrations ranging from 0 to 348 μg/ml. […] Cultures were maintained at OD600 0.4 for 21 or 29 h, followed by an additional 3-h growth period after sample collection, totaling 24 and 32 h.
(§4) Plasmids extracted from samples taken before (T0) and after selection (TF) were sequenced by NGS (Illumina), and reads corresponding to expected sequences were quantified to assess relative frequencies and enrichment.
Short selection runs (batches)
Glycerol stocks of mixed libraries were inoculated at approximately 18:00 in fresh media and grown overnight at 30 °C, to slow growth kinetics and reduce saturation-related stress (by decreasing the time spent in stationary phase). The grown cultures were diluted to OD600 = 0.05 in 150 mL of LB supplemented with 17 µg/mL chloramphenicol, 200 µM IPTG, 200 ng/mL aTc, and incubated (200 rpm, 37 °C) for 2 h (OD600 ~ 0.5). […] Assuming that sufficiently strong selection pressure can impact population growth over a short term (few hours), only cultures with OD at least 0.5 absorbance units lower than the OD of the culture without kanamycin after 4.5–5 h were retained for NGS analysis (TF-[ X µg/mL kan] samples).
(§5) NGS sample preparation and analysis
(§6) NGS samples were prepared by PCR using primer OR2895 with one of primers from OR2890– OR2894: 98 °C for 1 min; 26 cycles of (98 °C for 15 s.; 65 °C for 15 s.; 72 °C for 1 min) and 72 °C for 3 min.
(§7) FASTQ-formatted assembled paired-end reads corresponding to the expected sequences were counted and their frequencies calculated. Enrichment of each variant was obtained by the TF/T0 frequency ratio.

[2] = test system: ASF1BN; test: qB2H v4 binder selection, long-term turbidostat (Chi.Bio), kanamycin 209 μg/ml, NGS enrichment/frequency; type: cell-based; details: kanamycin 209 μg/ml (120% MIC50), TF/T0 frequency ratio
Procedure: as §1, §2, §3, §4
Long selection runs (continuous cultures under stable cell density—turbidostat)
Culture conditions before kanamycin-based selection were identical to those in “short selection runs in batches” including T0 sample preparation. However, the turbidostat function of Chi.Bio system^11,12 was used to implement a continuous culture over extended selection periods. […] Samples (10 mL) were recovered at 21 and 29 h after selection initiation and cultured for an additional 3 hours (final OD ~ 2.5) totalizing, respectively, 24 (TF_24h) or 32 hours (TF_32h) selection.
as §5, §6, §7

[3] = test system: ASF1BN; test: qB2H fluorescent reporter (eGFP MFI, flow cytometry or colonies), ASF1BN, v1 to v3; type: cell-based, human; details: relative to ip3_mut3A and ip1
Procedure: qB2H experiments using a fluorescent reporter
(§8) Precultures of untransformed (for intrinsic fluorescence evaluation) and transformed SB39 cells were diluted (3 μl into 300 μl of fresh medium) in 2-ml microtubes and grown in ThermoMixer C (Eppendorf; 37 °C at 900 rpm) for 2 h. Cultures with an OD600 of approximately 0.5 were then mixed with 100 μl of the same medium containing 4× inducer concentration. Final inducer concentrations, chosen on the basis of maximal signal output, were 20 μM IPTG for v1 or v2 and 200 μM IPTG plus […] for v3 series. The induced cultures were grown overnight at 18 °C, diluted (1 μl) in freshly filtered (0.22 μm) phosphate-buffered saline buffer (1 ml per OD unit), and analyzed using guava easyCyte HT (488-nm blue laser). The gating for event analysis was set to minimize background noise (fewer than 100 gated events per 10 μl of sterile phosphate-buffered saline). Ten thousand events were collected per culture, and the MFI was recorded. […]
(§9) MFI(x) represents the MFI of a given condition or culture. MFI(low) corresponds to the fluorescence produced by SB39 cells cotransformed with VN519 and VN550, indicating no detectable interaction (Kd > 100,000 nM). […]

[4] = biological target: T1, SMT3 (Saccharomyces cerevisiae, UniProt Q12306); test: qB2H v1 fluorescence, SMT3 (SUMO) vs SUMO-interacting motifs; type: cell-based, Escherichia coli; details: BL21(DE3), qB2H v1, cI-SMT3 2-97, IPTG(20µM)
T1 construct: SMT3; UNIPROT: Q12306; 2-97; Saccharomyces cerevisiae; expressed in transfected cells; host or cells: E. coli BL21(DE3) transformed with VN594 plus a pBRα rpoA-fusion plasmid
Procedure: Precultures of untransformed (for intrinsic fluorescence evaluation) and transformed SB39 cells were diluted (3 μl into 300 μl of fresh medium) in 2-ml microtubes and grown in ThermoMixer C (Eppendorf; 37 °C at 900 rpm) for 2 h. Cultures with an OD600 of approximately 0.5 were then mixed with 100 μl of the same medium containing 4× inducer concentration. […] The induced cultures were grown overnight at 18 °C, diluted (1 μl) in freshly filtered (0.22 μm) phosphate-buffered saline buffer (1 ml per OD unit), and analyzed using guava easyCyte HT (488-nm blue laser). The gating for event analysis was set to minimize background noise (fewer than 100 gated events per 10 μl of sterile phosphate-buffered saline). Ten thousand events were collected per culture, and the MFI was recorded. […] Their MFI were used to normalize those of other conditions (x) using the following equation [Eq. (1)]: Normalized MFIx=MFIx−MFIlow/MFIhigh−MFIlow × 100 (1)
MFI(x) represents the MFI of a given condition or culture. […] Each experiment was conducted in 3 independent assays performed on different days. Figures were generated using Python notebooks in conjunction with Matplotlib.
Interactions involving distinct protein domains and folding variants were assessed using qB2H systems v1, v2, and v3. […] The x-axis labels indicate the qB2H version and the interacting partners, formatted as follows: (qB2H version) Partner_A–Partner_B (inducers). Anhydrotetracycline (aTc) concentrations are reported in ng/mL; IPTG concentrations are given in µM. All experimental conditions, acronyms, and constructs are defined in the Methods section.

[5] = test system: TNFa; test: qB2H v3 fluorescence, TNFa vs VHH/ScFv; type: cell-based, Homo sapiens; details: SB39, v3, cI-TNFa 77-233, aTc(200ng/mL) + IPTG(1000µM)
Procedure: as §8, §9
Interactions involving distinct protein domains and folding variants were assessed using qB2H systems v1, v2, and v3. […]

[6] = Batch_Kan348, kanamycin 348 μg/ml (200% MIC50 of ASF1–ip3)
[7] = Batch_Kan261, kanamycin 261 μg/ml (150% MIC50 of ASF1–ip3)
[8] = ChiBio_T24_Kan209, turbidostat 24 h
[9] = ChiBio_T32_Kan209, turbidostat 32 h

T1 sequence (Q12306 2-97): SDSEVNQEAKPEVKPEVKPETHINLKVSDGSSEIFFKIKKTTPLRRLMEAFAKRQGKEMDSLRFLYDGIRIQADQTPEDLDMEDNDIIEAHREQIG

Substance: KPEAAASAAAEQAHFAALLAKLPGSKWARLARRTAGAGGVTLNGAG [AI design n°225 with GSK linker]
- enrichment [1, 6]: 4.18E+00

Substance: KPEAAASAEEEQARFAALLAALPGSKWARLARRTAGAGGVTLNGAG [AI design n°250 with GSK linker]
- enrichment [1, 6]: 4.27E+00

Substance: KPEAAASSAAERFAAALAALPGSKWARLARRTAGAGGVTLNGAG [AI design n°47 with GSK linker; third of batch Kan[348]]
- enrichment [1, 6]: 4.66E+00

Substance: KPEAAASAAAEQAAFAALLAALPGSKWARLARRTAGAGGVTLNGAG [AI design n°217 with GSK linker]
- enrichment [1, 7]: 3.15E+00

Substance: KPEAAASAEAEAARFAALLAALPGSKWARLARRTAGAGGVTLNGAG [AI design n°220 with GSK linker]
- enrichment [2, 8]: 4.84E-02
- enrichment [2, 9]: 5.25E-02

Substance: WARLARRTAGAGGVTLNGAG [ip4_mutG]
- qB2H signal [3]: between ip3_mut3A and ip1

Substance: KPEAAASAEAERWAQALAALPGSKWARLARRTAGAGGVTLNGAG [AI design n°32 with GSK linker]
- enrichment [1, 7]: 4.25E+00

Substance: AAEEAARFAALLAALP-GSK-ip4_mutG [T32_Kan[209]_top2, AI design n°218 with GSK linker]
- enrichment [2, 8]: 7.72E+01
- enrichment [2, 9]: 8.39E+01

Substance: KPEAAASAEEEEAAFAALLAALPGSKWARLARRTAGAGGVTLNGAG [AI design n°233 with GSK linker]
- enrichment [2, 8]: 1.42E+00
- enrichment [2, 9]: 2.04E+00

Substance: CDC48 72-91: CDC48 P25694 region 72-91, SUMO-interacting motif peptide (KKRKDTVLIVLIDDELEDGA; UniProt P25694 72-91, looked up, fragment)
- Norm. MFI [4]: 46.16%

Substance: CDC48 431-450: CDC48 P25694 region 431-450, SUMO-interacting motif peptide (QQIREKMDLIDLDEDEIDAE; UniProt P25694 431-450, looked up, fragment)
- Norm. MFI [4]: 9.91%

Substance: Srs2_SIM: SUMO-interacting motif, P12954 1164-1174, Saccharomyces cerevisiae (KLNNGEIIVID; UniProt P12954 1164-1174, looked up, fragment)
- Norm. MFI [4]: 62.95%

Substance: KPEAAASMSSHQLWKQWGGGSEKWARLARRTAGAGGVTLNGAG [Rational design n°84 with GSEK linker]
- enrichment [1, 7]: 2.46E+00

Substance: KPEAAASDAAARFAAALAALPGSKWARLARRTAGAGGVTLNGAG [AI design n°37 with GSK linker]
- enrichment [1, 7]: 4.90E+00

Substance: KPEAAASAAEEQAAFDALLAALPGSKWARLARRTAGAGGVTLNGAG [AI design n°261 with GSK linker; third of turbidostat T32_Kan[209]]
- enrichment [2, 8]: 6.25E+00
- enrichment [2, 9]: 1.11E+01

Substance: ScFv (D2E7): Adalimumab ScFV; WIPO: WO2011084714A2
- Norm. MFI [5]: 8.76%
